According to US9096581B2, “Fluoroethyl thiamine or salts thereof and application thereof in preparation of anticoccidial drugs” (GUANGZHOU ORIGMOL FEED-ADDITIVE CO., LTD, priority 2012, dated 2015):
Where a name gives a salt, the structure may show the parent alone.

Test system: Eimeria tenella GD strains
Assay: Anticoccidial dose research in chickens infected with Eimeria tenella GD (Embodiment 2)
Format: in vivo
Design: oocyst value: scale not given here
Conditions: for number of oocysts in cecum / average weight gain: 7th day; for lesion value: cecum, 7 days after infecting, scale 0-40; for survival rate / average weight gain / bloody feces scoring: chickens; for bloody feces scoring: 5 days after infecting, score 0-4; for oocyst value: converted per Table 2; for relative weight gain rate: vs non-infected non-drug control
Description: 1-day-old Lingnan yellow chickens, purchased from Poultry Research Unit, Bureau of Animal Husbandry, Guangdong Academy of Agricultural Sciences, bred under coccidium-free environment, and subjected to experiment after no coccidium oocyst is found in feces through microscopic examination when the chickens are 14 days old. Perfect compound feed for chickens: prepared by Huizhou Yuantai Feed Co. Ltd., and containing no antibacterial or anticoccidial additive.
Eimeria tenella GD strains, having no resistance to various anticoccidial drugs. Breeding and amplifying in chickens before the experiment, collecting fresh oocysts, sporulating, and preserving at 4° C. for later use.
Weighing the 14-day-old experiment chickens one by one, rejecting emaciated or overweighted chickens, selecting healthy chickens of which the individual body weight difference is within 20 g, and dividing to 9 groups with 20 chickens in each group. Groups 1 and 2 are respectively a non-drug-applied and non-coccidium-killed control group and a coccidium-infected and non-drug-applied control group, and Groups 3-9 are experiment groups applied with different doses of the fluoroethyl thiamine hydrochloride according to Table 1. Adding different doses of drugs to feeds and mixing uniformly on the day of experiment grouping, enabling the chickens to freely take in the feeds, and feeding the chickens until the experiment ends.
Except the non-coccidium-infected and non-drug-applied control group (Group 1), giving each experiment chicken in each experiment group with 2.5×10^5 eimeria tenella sporulated oocysts via the crop on the next day of the grouping day. During experiment, observing and recording the spirit, appetite, bloody feces situation, death count and the like of the chickens every day. Performing bloody feces scoring on the chickens in each group 5 days after infecting. On the 7th day, respectively weighing all the chickens in each group, then autopsying them, observing cecum lesions and counting the oocysts in the cecum.
2.3.1 Bloody feces scoring: according to the method in the references: 0 point, no bloody feces, 1 point, less than 25% of bloody feces; 2 points, 25%-50% of bloody feces; 3 points, 50%-75% of bloody feces; 4 points, more than 75% of bloody feces.
2.3.2 Weight gain: respectively weighing each chicken when the experiment starts and ends, and calculating the average weight gain and relative weight gain rate. The relative weight gain rate=(the average weight gain in the experiment groups/the average weight gain in the non-infected and non-drug-applied control group)×100%.
2.3.3 Survival rate: recording the number of dead chickens of each group, autopsying to determine the death cause, and calculating the survival rate. The survival rate=(the total number of the chickens in the experiment groups−the number of the chickens dying of coccidium infection during the experiment)/the total number of the chickens in the experiment groups×100%.
2.3.4 Lesion standard: killing the chickens 7 days after infecting, performing cecum lesion scoring according to the lesion scoring of Johnson and Reid (1970), and converting lesion points to lesion values.
lesion scoring (taking the serious side if the two sides of the cecum are inconsistent in lesion): 0 point, no macroscopic lesion; 1 point, a small amount of scattered petechiae on the cecum wall, no incrassation on the cecum wall, normal contents; 2 points, a large amount of lesion, obviously bloody contents in the cecum, slight incrassation on the cecum wall, normal contents; 3 points, a large a mount of blood or intestinal core (blood clot or gray caseous banana-shaped lumps) in the cecum, obvious incrassation on the cecum wall, a small amount of feces in the cecum; 4 points, cecum swelling caused by filling of a large amount of blood or intestinal core with or without feces in the intestinal core. Recording the dead chicken lesion as 4 points as well. […]

## CCc1ncc(C[n+]2csc(CCF)c2C)c(N)n1 [fluoroethyl thiamine hydrochloride, 3-[(4-amino-2-ethyl-5-pyrimidyl)-methylene]-5-(2-fluoroethyl)-4-methyl thiazole chloride hydrochloride]
10 ppm in feed
  anticoccidial index (ACI): 136.7
  number of oocysts in cecum: 2.965 ×10^6/chicken
  lesion value: 24.5
  survival rate: 90%
  average weight gain: 135.7 g/chicken
  bloody feces scoring: 2
  oocyst value: 10
  relative weight gain rate: 81.2%
25 ppm in feed
  anticoccidial index (ACI): 144.6
  number of oocysts in cecum: 2.325 ×10^6/chicken
  lesion value: 18.8
  survival rate: 90%
  average weight gain: 139.5 g/chicken
  bloody feces scoring: 2
  oocyst value: 10
  relative weight gain rate: 83.4%
50 ppm in feed
  anticoccidial index (ACI): 165.5
  drug efficiency level judged from the anticoccidial index: intermediate-efficiency anticoccidial drugs (intermediate-efficiency anticoccidial drugs if 160≦ACI<180)
  number of oocysts in cecum: 3.65 ×10^6/chicken
  lesion value: 11.2
  survival rate: 100%
  average weight gain: 144.9 g/chicken
  bloody feces scoring: 1
  oocyst value: 10
  relative weight gain rate: 86.7%
75 ppm in feed
  anticoccidial index (ACI): 176.4
  drug efficiency level judged from the anticoccidial index: intermediate-efficiency anticoccidial drugs (intermediate-efficiency anticoccidial drugs if 160≦ACI<180)
  number of oocysts in cecum: 2.15 ×10^6/chicken
  lesion value: 8.5
  survival rate: 100%
  average weight gain: 158.7 g/chicken
  bloody feces scoring: 0
  oocyst value: 10
  relative weight gain rate: 94.9%
100 ppm in feed
  anticoccidial index (ACI): 195.9
  drug efficiency level judged from the anticoccidial index: high-efficiency anticoccidial drugs (high-efficiency anticoccidial drugs if ACI≧180)
  number of oocysts in cecum: 0.47 ×10^6/chicken
  lesion value: 0
  survival rate: 100%
  average weight gain: 162.0 g/chicken
  bloody feces scoring: 0
  oocyst value: 1
  relative weight gain rate: 96.9%
150 ppm in feed
  anticoccidial index (ACI): 201.4
  drug efficiency level judged from the anticoccidial index: high-efficiency anticoccidial drugs (high-efficiency anticoccidial drugs if ACI≧180)
  number of oocysts in cecum: 0.16 ×10^6/chicken
  lesion value: 0
  survival rate: 100%
  average weight gain: 171.2 g/chicken
  bloody feces scoring: 0
  oocyst value: 1
  relative weight gain rate: 102.4%
200 ppm in feed
  anticoccidial index (ACI): 200.8
  drug efficiency level judged from the anticoccidial index: high-efficiency anticoccidial drugs (high-efficiency anticoccidial drugs if ACI≧180)
  number of oocysts in cecum: 0 ×10^6/chicken
  lesion value: 0
  survival rate: 100%
  average weight gain: 168.5 g/chicken
  bloody feces scoring: 0
  oocyst value: 0
  relative weight gain rate: 100.8%
